For twelve molecules, IC50, EC50 and inhibition results are on record in ChEMBL document CHEMBL2028040, “Malaria Box”.

Data set [1] concerns Trypanosoma brucei brucei. Kind of data set: MMV: Inhibition of Trypanosoma brucei brucei (Squib 427) (HAT in vitro). The class given is functional, organism-based.
In data set [2] the test system is Trypanosoma brucei rhodesiense. The data set can be described thus: MMV: Inhibition of Trypanosoma brucei rhodesiense (STIB 900) (HAT in vitro). It is filed as functional, organism-based.
Data set [3] has as its system Plasmodium falciparum. The data set can be described thus: MMV: Inhibition of Plasmodium falciparum K1 (EC50). It is filed as functional, organism-based.
The test system of data set [4] is Leishmania infantum. The data set can be described thus: MMV: Inhibition of Leishmania infantum (MHOM/MA/BE/67) in vitro. The class given is functional, organism-based.
The test system of data set [5] is Plasmodium falciparum. Kind of data set: MMV: Inhibition of Plasmodium falciparum 3D7 at 5uM compound concentration. The class given is functional.
Data set [6] relates to Trypanosoma cruzi. The data set can be described thus: MMV: Inhibition of Trypanosoma cruzi (Tulahuen C4 LacZ) (Chagas in vitro). The class given is functional, organism-based.
A short description of data set [7]: MMV: Cytotoxicity against human fibroblasts (MRC-5) cells. The settings on record: MRC-5 cells (human fibroblasts).
Data set [8] deals with Plasmodium falciparum. Kind of data set: MMV: Inhibition of Plasmodium falciparum 3D7 (EC50). The class given is functional, organism-based.

The structures appear in SMILES notation.

As to `CCCCCn1c(=N)n(CC(O)COc2cccc(C)c2)c2ccccc21` (stereo not drawn), the IC50 in data set [1] was 0.923 µM; in data set [2] it was 0.986 µM; in data set [4], 3.41 µM; in data set [6] it was 4.21 µM; in data set [7], 15.5 µM. In data set [3], this molecule came in with an EC50 of 1.25 µM. The molecule also came in with an inhibition at 5 µM in data set [5] of 96%.
For `CCOc1c(Cl)cc(CNC(C)C(O)c2ccccc2)cc1OC` (stereo not drawn), the IC50 was 9.51 µM in data set [1]; 4.09 µM in data set [2]; 16.6 µM in data set [4]; above 32 µM in data set [6]; above 32 µM in data set [7]. A half-maximal response in data set [3] (EC50) required 0.706 µM. Further, the inhibition at 5 µM in data set [5] is 98%.
As for `C=CC12CCN(CC1)C(C(O)c1ccnc3ccc(OC)cc13)C2` (stereo not drawn), the IC50 in data set [1] was above 32 µM; in data set [2] it was 16 µM; in data set [4], above 32 µM; in data set [6] it was above 32 µM; in data set [7], above 32 µM. For the same molecule, in data set [3], the EC50 stood at 0.0281 µM.
Consider `CCN(CC)CCn1c(=N)n(CC(O)c2ccc(Cl)c(Cl)c2)c2ccccc21` (stereo not drawn), for which the IC50 stood at 0.908 µM in data set [1]; 1.02 µM in data set [2]; 1 µM in data set [4]; 3.82 µM in data set [6]; 16.1 µM in data set [7]. The EC50 in data set [3] was 0.575 µM. Further, the inhibition at 5 µM in data set [5] was determined as 97%.
In the case of `CC(C)(C)CC(C)(C)NCC(O)COc1ccc2c(c1)CCC2` (stereo not drawn), the IC50 is 3.49 µM in data set [1]; 1.02 µM in data set [2]; 4.76 µM in data set [4]; 15.7 µM in data set [6]; 26.1 µM in data set [7]. In data set [3], this molecule registered an EC50 of 1.08 µM. Besides, the inhibition at 5 µM in data set [5] stood at 78%.
In the case of `Oc1ccc(Br)cc1CN1CCN(Cc2ccc(Cl)cc2)CC1`, the IC50 was above 32 µM in data set [1]; 14.9 µM in data set [2]; above 32 µM in data set [4]; 8.28 µM in data set [6]; above 32 µM in data set [7]. Moreover, the EC50 in data set [3] amounted to 0.899 µM. For the same molecule, in data set [5], the inhibition at 5 µM was 97%.
As to `Cc1cc(=O)oc2c1ccc1oc(C(=O)c3ccccc3)c(C)c12`, the IC50 in data set [1] is above 32 µM; in data set [2], 20.8 µM; in data set [4], above 32 µM; in data set [6], above 32 µM; in data set [7], 6.35 µM. The molecule further showed an EC50 in data set [3] of 0.683 µM. Also, testing at 5 µM in data set [5] gave an inhibition of 94%.
`Cc1ccc(S(=O)(=O)c2c(COC(=O)c3cccc(C)c3)c(-c3ccccc3)nn2C)cc1`: the IC50 in data set [1] was 16.3 µM; in data set [2] it was 16.5 µM; in data set [4] it was 17.3 µM; in data set [6], 23.6 µM; in data set [7] it was above 32 µM. Besides, the EC50 in data set [3] stood at 0.776 µM. This molecule had an inhibition at 5 µM in data set [5] of 95%.
In the case of `COc1ccc(C(=O)NC(c2ccccc2Cl)c2cc(Cl)c3cccnc3c2O)cc1` (stereo not drawn), the IC50 in data set [1], in data set [2], in data set [4], in data set [6] and in data set [7] was above 32 µM in each case. In data set [3], this molecule showed an EC50 of 0.703 µM. At 5 µM the inhibition in data set [5] was 96%.
As to `CCc1ccc(CNCC(O)c2ccccc2)cc1` (stereo not drawn), the IC50 in data set [1] was 13.3 µM; in data set [2], 4.03 µM; in data set [4], 25.4 µM; in data set [6], above 32 µM; in data set [7], above 32 µM. The molecule further displayed an EC50 in data set [3] of 0.65 µM. This molecule also registered an inhibition at 5 µM in data set [5] of 97%.
As for `CCOC(=O)C1(Cc2ccccc2)CCN(Cc2cccc(OC)c2O)CC1`, the IC50 in data set [1] is 16.7 µM; in data set [2], 15.3 µM; in data set [4], above 32 µM; in data set [6], 17.1 µM; in data set [7], above 32 µM. For the same molecule, the EC50 in data set [3] amounted to 1 µM. This molecule had an inhibition at 5 µM in data set [5] of 95%.
With `CCOc1cc(Cl)c(C(C)NC(=O)c2ccccc2)cc1OCC` (stereo not drawn), the IC50 in data set [1], in data set [2], in data set [4], in data set [6] and in data set [7] was above 32 µM each time. This molecule also displayed an EC50 in data set [8] of 1.37 µM. This molecule also came in with an inhibition at 5 µM in data set [5] of 96%.
